# Measured values reported in patent US20240279684A1, “CYTOSOLIC DELIVERY OF GENOME EDITING TOOLS” (SAPREME TECHNOLOGIES B.V., priority 2021, published 2024).
# How the values were obtained:
# [1] = tested on: GFP-expressing Neuro-2A-GFP-cells; assay: GFP-knockout via Cas9/gRNA(GFP) nanoplexes, FITC-H flow cytometry; type: cell-based, murine; details: for cells not considered fluorescent: GE1741-co-application
# Procedure: FIG. 6A-E. GFP-Knockout of GFP-expressing Neuro-2A-GFP-cells via PDD (Cas9-DNA, gRNA (GFP)-DNA)-nanoplexes±saponin administration (co-transfection). GFP expressing Neuro-2A-cells were transfected via co-transfection of Cas9-DNA-plasmid and gRNA (GFP)-DNA-plasmid in a ratio of 4:0.5:0:5, with 500 ng of each DNA/well and 4.000 ng poly-lysine K16 peptide perwell. […] With saponin-Co-administration, the FITC-H was decreased by 10% (FIG. 6D) and the amount of cells not considered “fluorescent” compared to negative control, was increased by 7.5% (FIG. 6E).; n 3. FIG. 6A: FACS results with negative control; FIG. 6B: FACS results with PDD(Cas9-DNA, gRNA(GFP)-DNA), 4:1; FIG. 6C: FACS results of PDD(Cas9-DNA, gRNA(GFP)-DNA), 4:1+GE1741; FIG. 6D: values for the median FITC-H for the test samples of FIG. 6A-C and the control Lipofectamine3000DD(Cas9-DNA); FIG. 6E: amount of non-fluorescent cells in the test samples of FIGS. 6A-C and the control Lipofectamine3000DD(Cas9-DNA).
# FIG. 7A-E. GFP-Knockout of GFP-expressing Neuro-2A-cells via PD (Cas9-gRNA (GFP)-DNA)-nanoplexes±saponin administration (All-in-one-transfection). GFP expressing Neuro-2A-cells were transfected via “All-in-one”-transfection of a Cas9-gRNA (GFP)-DNA-plasmid in a ratio of 4:1, 500 ng of each DNA/well. […] FIG. 7A: FACS results with negative control; FIG. 7B: FACS results with PD(Cas9-gRNA(GFP)-DNA, 4:1; FIG. 7C: FACS results of PD(Cas9-gRNA(GFP)-DNA, 4:1+GE1741; FIG. 7D: values for the median FITC-H for the test samples of FIG. 7A-C and for PD(Cas9-gRNA(GFP)-DNA, 8:1 and PD(Cas9-gRNA(GFP)-DNA, 8:1+GE1741; FIG. 7E: amount of non-fluorescent cells in the test samples of FIG. 7A-C and for PD(Cas9-gRNA(GFP)-DNA, 8:1 and PD(Cas9-gRNA(GFP)-DNA, 8:1+GE1741.
# After the successful delivery of Cas9-DNA with GFP-driven fluorescence has been established, the inventors next tested the functionality of Cas9-transfections. GFP-expressing Neuro-2A-GFP-cells were therefore acquired. The aim of the test was to show and visualize the knock-out of the GFP-gene with a CRISPR-Cas9-gene knock-out. Therefore, Cas9-DNA (i.e. a plasmid DNA) was, either co-transfected with a gRNA-DNA-plasmid (PDD), or delivered in one plasmid DNA (“All-In-One-Plasmid”) coding for Cas9 and gRNA (PD) and expressing both Cas9 and guide RNA (FIG. 8, FIG. 9). The effect of GE1741-co-application during transfection of the cells was investigated via decrease of fluorescence intensity (FITC-H median & separation of the dot plot in FITC-H & FSC related quarters). […] To improve gene knock-out efficiency, a number of different gRNA-sequences was tested, in order to select the most efficient target sequence for the gRNA. The initially and further applied gRNA-sequences were obtained through a database with efficiency information. For selection of an optimal gRNA sequence, the GFP-gene sequence of the transfected cell line has to be known as many GFP-sequences are available. Further, the gene knock-out requires a sensitive assay, by which minimal changes can be detected. Within promotor-driven highly fluorescing cells, single gene knock-out possibly could not be identified.
# [2] = tested on: cells with which the nanoplexes are contacted; assay: Toxicity of saponin towards cells during transfection; type: cell-based
# Source text: It is part of the invention that the method or the use of the invention is characterized in that the nanoparticle comprises the nanoparticle-forming compound, such as a peptide, such as poly-lysine, and the nucleic acid in a mass ratio in a range of 3:1 to 15:1, preferably in a range of 3:1 to 9:1. Typically, the nanoparticle-forming compound is a poly-lysine peptide such as K16 peptide. Preferred is the method wherein the nucleic acid is a plasmid DNA, at least encoding for a Cas, preferably Cas9 (SEQ ID NO: 1), and optionally also encoding for the gRNA, and wherein the nanoparticles comprise in addition to the plasmid DNA at least one poly-lysine peptide, preferably poly-lysine K16 peptide (poly-lysine peptide consisting of sixteen lysine residues). Alternatively, the poly-lysine peptide is a peptide consisting of 8-25 lysine residues, preferably 10-20, more preferably 12-18. High in vitro transfection efficiency is obtained with the method of the invention when nanoparticles encompassing plasmid DNA, K16 peptide are prepared and applied, and are contacted with cells in the presence of a saponin selected from GE1741 and SO1861, and preferably the saponin is GE1741. Typically, the saponin concentration during transfection of the plasmid DNA into selected target cells in vitro is 1 μg/mL-5 μg/mL, preferably 2-4 μg/mL. […] Cells are typically contacted with a composition comprising the nanoplexes and a separate composition comprising the saponin, preferably GE1741. Thus, typically, the nanoparticles comprise the poly-lysine peptide and the nucleic acid, for example at least a plasmid DNA encoding for a Cas, preferably Cas9 (SEQ ID NO: 1), or a Cas with at least 90% sequence identity with this Cas9, preferably 90-99.5% sequence identity, such as 92%, 93%, 94%, 95% or 95-99%.
smiles,measurement,setting,value
CC(=O)OC1C(C)OC(OC2C(C)OC(OC(=O)C34CCC(C)(C)CC3C3=CCC5C6(C)CCC(OC7OC(C(=O)O)C(O)C(OC8OCC(O)C(O)C8O)C7OC7OC(CO)C(O)C(O)C7O)C(C)(C=O)C6CCC5(C)C3(C)CC4O)C(OC3OC(C)C(OC4OCC(O)C(OC5OCC(O)C(O)C5O)C4O)C(O)C3O)C2O)C(O)C1OC(C)=O (centres unmarked) [GE1741],cells successfully transfected with Cas9-DNA,[1],30%
same,cells not considered fluorescent,[1]; All-In-One-Plasmid (PD),11%
same,FITC-H median change (in words),[1]; All-in-one PD (Cas9-gRNA(GFP)-DNA),No FITC-H could be observed
same,"amount of cells considered fluorescent, elevated by","[1]; All-in-one PD (Cas9-gRNA(GFP)-DNA), PD mass ratio 8:1",11%
same,decrease of FITC-H median,"[1]; co-transfection PDD (Cas9-DNA, gRNA(GFP)-DNA) 4:0.5:0.5, with saponin",10%
same,increase of cells not considered fluorescent compared to negative control,"[1]; co-transfection PDD (Cas9-DNA, gRNA(GFP)-DNA), with saponin",7.5%
same,cells not considered fluorescent,[1]; co-transfection with gRNA-DNA-plasmid (PDD),10%
same,highest non-toxic saponin Co-administration,[2],2 µg/mL
